In ChEMBL document CHEMBL4152370, “Identification of N-(5-(phenoxymethyl)-1,3,4-thiadiazol-2-yl)acetamide derivatives as novel protein tyrosine phosphatase epsilon inhibitors exhibiting anti-osteoclastic activity” (Bioorg Med Chem, 2018):
The source made the active and inactive calls. The calls are words filed in the database; no cut-off is given here.

What was measured:
[1] = target: T1, Receptor-type tyrosine-protein phosphatase epsilon (Homo sapiens, UniProt P23469); test: Inhibition of recombinant human cytosolic PTPepsilon expressed in Escherichia coli BL21 (DE3) using E527-P-Q-pY530-Q-P-G-E-N-L536 as substrate after 60 mins by malachite green assay
T1 sequence (P23469 whole entry): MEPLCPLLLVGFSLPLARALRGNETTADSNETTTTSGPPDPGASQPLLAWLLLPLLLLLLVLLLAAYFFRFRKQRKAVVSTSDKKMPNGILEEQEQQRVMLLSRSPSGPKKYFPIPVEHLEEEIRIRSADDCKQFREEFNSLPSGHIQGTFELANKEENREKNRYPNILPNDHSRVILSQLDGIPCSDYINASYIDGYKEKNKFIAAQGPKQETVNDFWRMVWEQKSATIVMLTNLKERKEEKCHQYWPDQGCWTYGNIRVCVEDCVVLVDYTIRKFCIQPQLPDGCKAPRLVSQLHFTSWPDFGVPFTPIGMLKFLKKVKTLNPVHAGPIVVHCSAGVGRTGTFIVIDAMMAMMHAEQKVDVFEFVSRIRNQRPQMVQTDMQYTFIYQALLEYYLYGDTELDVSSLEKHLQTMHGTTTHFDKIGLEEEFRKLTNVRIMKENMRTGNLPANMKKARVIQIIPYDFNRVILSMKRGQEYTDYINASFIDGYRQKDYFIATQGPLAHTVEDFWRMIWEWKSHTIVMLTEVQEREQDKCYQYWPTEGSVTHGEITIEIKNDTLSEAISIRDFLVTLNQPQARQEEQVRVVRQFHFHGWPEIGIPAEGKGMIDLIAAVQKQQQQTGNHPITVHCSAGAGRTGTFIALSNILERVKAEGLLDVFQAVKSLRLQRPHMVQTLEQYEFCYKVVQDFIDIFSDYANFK

[2] = target: T1, Receptor-type tyrosine-protein phosphatase epsilon; test: Inhibition of cytosolic PTPepsilon in human monocyte-derived osteoclasts assessed as relative level of Tyr530 phosphorylated c-Src/beta actin at 17 uM after 15 mins in presence of M-CSF/RANKL by Western blot method relative to control
Osteoclast [3] = test: Effect on relative level of total c-Src/beta-actin in human monocyte-derived osteoclasts at 17 uM after 15 mins in presence of M-CSF/RANKL by Western blot method relative to control; type: cell-based; conditions: 0.25 h
[4] = target: T1, Receptor-type tyrosine-protein phosphatase epsilon; test: Inhibition of cytosolic PTPepsilon in human monocyte-derived osteoclasts assessed as disruption of podosome organization at 17 uM after 4 days in presence of M-CSF/RANKL by DAPI staining-based immunofluorescence assay
Monocyte = test: Inhibition of RANKL-induced human monocytes differentiation into osteoclasts after 4 days in presence of M-CSF by tartrate-resistant acid phosphatase staining based assay; type: functional, cell-based
Osteoclast [5] = test: Cytotoxicity against human monocyte-derived osteoclasts assessed as effect on cell viability at 2 to 17 uM by formazan-based spectrometric method

| Compound | IC50 [1] [nM] | fold change (FC) [2] | fold change (FC) (Osteoclast [3]) | inhibition [4] | inhibition (Monocyte) | Activity (Osteoclast [5]) |
| --- | --- | --- | --- | --- | --- | --- |
| Cc1ccc(OCc2nnc(NC(=O)Nc3ccc(F)c(Cl)c3)s2)c(C)c1 | 1860 | 1.57 | 1.29 | Active | Dose-dependent effect | Non-Toxic |
| CCC(C)c1ccc(OCc2nnc(NC(=O)Nc3ccccc3OC)s2)cc1 (stereo not given) | 4170 | – | – | – | – | – |
| Cc1ccc(NC(=O)Nc2nnc(COc3ccc(C)cc3C)s2)cc1 | 2470 | 1.87 | 1.12 | Active | Dose-dependent effect | Non-Toxic |
| O=C(COc1ccc2c(c1)OCO2)Nc1nnc(COc2ccc(Cl)cc2)s1 | 2010 | – | – | – | – | – |
| COc1ccccc1OCC(=O)Nc1nnc(COc2ccccc2)s1 | 3700 | – | – | – | – | – |
